Values joined by “and” are separate entries in the source; they are usually repeats but may differ in a detail not shown here. Equal entries are not always repeated.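 Grown in 96-well plates, cells were treated for 48 hours with each compound at five concentrations. Insufficient inhibition: endpoint recorded as highest concentration tested. GI50 marks 50% less growth. TGI is the concentration that stops growth completely.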
Assays:
Experiment in all cases: NCI tumour cell line growth inhibition, 48 h
[1] = test system: HT29 colon
[2] = test system: M19-MEL melanoma
[3] = test system: DMS 273 small cell lung
[4] = test system: U251 CNS
[5] = test system: SK-MEL-28 melanoma
[6] = test system: HOP-62 NSCLC
[7] = test system: HCT-116 colon
[8] = test system: MALME-3M melanoma
[9] = test system: OVCAR-4 ovarian
[10] = test system: COLO 205 colon

| SMILES | TGI [1] | TGI [2] [µM] | TGI [3] [µM] | TGI [4] | TGI [5] | TGI [6] | TGI [7] | TGI [8] | TGI [9] | GI50 [1] | GI50 [10] | TGI [10] | GI50 [4] | GI50 [5] | GI50 [6] | GI50 [7] | GI50 [8] | GI50 [9] | GI50 [3] [µM] |
| --- | --- | --- | --- | --- | --- | --- | --- | --- | --- | --- | --- | --- | --- | --- | --- | --- | --- | --- | --- |
| COc1ccc(C(=O)C(C(=O)CCC(=O)Nc2ccc(Cl)c(Cl)c2)c2ccc(OC)cc2)cc1 (stereo unspecified) | > 100 µM | > 100 | > 100 | > 100 µM | > 100 µM | > 100 µM | > 100 µM | > 100 µM | > 100 µM | – | – | – | – | – | – | – | – | – | – |
| COc1cc(/C=C/C(=O)c2cccc(-n3cc(-c4ccccc4)[nH]c3=O)c2)cc(OC)c1OC | 1.85 µM | – | – | 1.94 µM | 3.2 µM | 13.6 µM | 1.2 µM | 3.56 µM | 5.07 µM | 0.662 µM | 1.51 µM | 2.83 µM | 0.63 µM | 1.74 µM | 4.12 µM | 0.332 µM | 1.31 µM | 1.88 µM | – |
| Cc1ccc(NC(=O)c2ccc(CN3CCN(C)CC3)cc2)cc1Nc1nc(-c2cccnc2)cs1 | 13.7 µM and > 10 µM | – | – | 14 µM and > 10 µM | 24.5 µM and 8.57 µM | 29.9 µM and > 10 µM | 14.8 µM and > 10 µM | 21 µM and 6.92 µM | 26.5 µM and > 10 µM | 3.5 µM and 3.23 µM | 8.14 µM and 3.69 µM | 22.6 µM and > 10 µM | 3.74 µM and 2.92 µM | 12 µM and 2.66 µM | 16.3 µM and > 10 µM | 3.74 µM and 3.05 µM | 7.14 µM and 2.26 µM | 11.6 µM and 7.8 µM | – |
| CC1CCCCCC(=O)c2c(O)cc(O)cc2CC(=O)O1 (stereo unspecified) | > 100 µM | – | – | > 100 µM | > 100 µM | > 100 µM | > 100 µM | > 100 µM | > 100 µM | – | – | > 100 µM | – | – | – | – | – | – | – |
| O=[N+]([O-])c1ccc(C2=NCCO2)cc1 | > 100 µM | – | – | > 100 µM | > 100 µM | > 100 µM | > 100 µM | > 100 µM | > 100 µM | > 100 µM | > 100 µM | > 100 µM | > 100 µM | > 100 µM | > 100 µM | > 100 µM | > 100 µM | > 100 µM | – |
| Cc1ccc(S(=O)c2ccccc2[N+](=O)[O-])cc1 (stereo unspecified) | > 100 µM | > 100 | > 100 | > 100 µM | > 100 µM | > 100 µM | – | > 100 µM | > 100 µM | – | – | – | – | – | – | – | – | – | – |
| C[C@@H]1C(=O)CC2C(C)(C)CCC[C@]2(C)[C@@]12CC[C@]1(C=COC1)O2 (stereo partly specified) | > 100 µM | > 100 | > 100 | – | – | > 100 µM | > 100 µM | 79.5 µM | > 100 µM | – | – | > 100 µM | – | – | – | – | – | – | – |
| C/C(=C\C(=O)O[C@H]1[C@@H]2[C@H](C)CC[C@H]2[C@]2(C)O[C@@]1(C1CCCCC1)C[C@H]2OC(=O)CO)c1ccccc1 | 13 µM | – | – | 11.5 µM | 12.6 µM | 13 µM | 12 µM | 13.5 µM | 13.8 µM | 6.47 µM | 7.61 µM | 15 µM | 6.02 µM | 6.78 µM | 7 µM | 6.18 µM | 7.25 µM | 7.25 µM | – |
| CN(C)CCC(N)(P(=O)([O-])[O-])P(=O)([O-])[O-].N.N.[Pt+2] | > 100 µM | – | > 100 | > 100 µM | > 100 µM | > 100 µM | > 100 µM | > 100 µM | > 100 µM | > 100 µM | > 100 µM | > 100 µM | > 100 µM | > 100 µM | > 100 µM | > 100 µM | > 100 µM | > 100 µM | > 100 |
| CCC(=C(c1ccc(OCCN2CCCCC2)cc1)c1ccc(OCCN2CCCCC2)cc1)c1ccc(Cl)cc1 | > 16.7 µM | – | – | > 16.7 µM | 5.26 µM | > 16.7 µM | > 16.7 µM | 5.21 µM | > 16.7 µM | 0.762 µM | 3.59 µM | 9.01 µM | 3.42 µM | 2.8 µM | > 16.7 µM | 1.56 µM | 2.72 µM | > 16.7 µM | – |
| C[N+]1([O-])C2CCC1CC(OC(=O)C(CO)c1ccccc1)C2 (stereo unspecified) | > 100 µM | – | – | > 100 µM | > 100 µM | > 100 µM | > 100 µM | > 100 µM | > 100 µM | – | – | > 100 µM | – | – | – | – | – | – | – |
| C=CCc1cccc(C=O)c1O | > 100 µM | – | – | > 100 µM | > 100 µM | > 100 µM | > 100 µM | > 100 µM | > 100 µM | 67.9 µM | > 100 µM | > 100 µM | 6.63 µM | > 100 µM | > 100 µM | 4.07 µM | > 100 µM | 21.7 µM | – |
| CC(C)=CCc1cc2c(cc1O)C1=C(C(=O)C3=C(NCCS3(=O)=O)C1=O)C(C=C(C)C)O2 (stereo unspecified) | > 16.7 µM | – | – | 13.9 µM | 9.84 µM | > 16.7 µM | > 16.7 µM | 4.68 µM | > 16.7 µM | 7.35 µM | 5.53 µM | > 16.7 µM | 4.19 µM | 3.81 µM | 8.59 µM | 5.84 µM | 1.68 µM | 3.31 µM | – |
| CC(=O)C1(O)CC2(c3ccccc3)C(=O)C1(c1ccccc1)C(c1ccccc1)=C2c1ccccc1 (stereo unspecified) | > 100 µM | > 100 | > 100 | > 100 µM | – | > 100 µM | > 100 µM | > 100 µM | > 100 µM | – | – | > 100 µM | – | – | – | – | – | – | – |
| Cc1ccc(N)c(S)c1 | 33.8 µM | – | – | 28.5 µM | 47.6 µM | 44.4 µM | 46.8 µM | 82.6 µM | 43.5 µM | – | – | 52.9 µM | – | – | – | – | – | – | – |
| C=C(CO)C(=O)OC1CC(=C)C2CC(O)C(C)C2C2OC(=O)C(=C)C12 (stereo unspecified) | 53.9 µM | – | – | 64.2 µM | 57.6 µM | 46.5 µM | > 100 µM | 41.7 µM | > 100 µM | – | – | 90.4 µM | – | – | – | – | – | – | – |
| Nc1c(C(=O)Nc2cccc(Cl)c2)sc2nc3c(cc12)C(=O)CCC3 | > 100 µM | – | – | > 60.2 µM | > 100 µM | > 100 µM | > 100 µM | > 100 µM | > 100 µM | 0.338 µM | 0.288 µM | – | 0.599 µM | 0.567 µM | 0.663 µM | 0.431 µM | 0.498 µM | 13.3 µM | – |

— PubChem BioAssay (NCI)
